Experimental data as given in patent US4332794A, “6"-Deoxydibekacin, 4",6"-dideoxydibekacin and 1-N-aminoacyl derivatives thereof, and the production of these new compounds” (Zaidan Hojin Biseibutsu Kagaku Kenkyu Kai, priority 1979, dated 1982).
Converted amounts (≈) assume the structure as drawn. Read-outs that look alike come from different tables or passages of the source.

How the values were obtained:
[1] = test system: Escherichia coli K-12 ML 1410; assay: MIC, serial dilution on nutrient agar; type: cell-based
Providencia Pv 16 = assay: MIC, serial dilution on nutrient agar; type: cell-based
[2] = test system: Escherichia coli K-12 LA 290 R64; assay: MIC, serial dilution on nutrient agar; type: cell-based; conditions: K12LA290R64, 18 h
[3] = test system: Staphylococcus aureus APO1; assay: MIC, serial dilution on nutrient agar; type: cell-based
[4] = test system: Pseudomonas aeruginosa K-Ps102; assay: MIC, serial dilution on nutrient agar; type: cell-based
[5] = test system: Bacillus cereus ATCC 10702; assay: MIC, serial dilution on nutrient agar; type: cell-based; conditions: ATCC10702, 18 h
[6] = test system: Mycobacterium smegmatis ATCC 607; assay: MIC, serial dilution on nutrient agar; type: cell-based; conditions: Mycolicibacterium smegmatis
[7] = test system: Escherichia coli JR66/W677; assay: MIC, serial dilution on nutrient agar; type: cell-based; conditions: JR66/W677, 18 h
[8] = test system: Staphylococcus epidermidis 109; assay: MIC, serial dilution on nutrient agar; type: cell-based
Salmonella typhi F63 = assay: MIC, serial dilution on nutrient agar; type: cell-based; conditions: Salmonella enterica, 18 h
Escherichia coli NIHJ = assay: MIC, serial dilution on nutrient agar; type: cell-based
Sarcina lutea PCI 1001 = assay: MIC, serial dilution on nutrient agar; type: cell-based; conditions: Micrococcus luteus, PCI1001, 18 h
[9] = test system: Pseudomonas aeruginosa A3; assay: MIC, serial dilution on nutrient agar; type: cell-based; conditions: A3, 18 h
[10] = test system: Salmonella enteritidis 1891; assay: MIC, serial dilution on nutrient agar; type: cell-based; conditions: Salmonella enterica, 18 h
[11] = test system: Pseudomonas aeruginosa No. 12; assay: MIC, serial dilution on nutrient agar; type: cell-based
[12] = test system: Pseudomonas aeruginosa TI-13; assay: MIC, serial dilution on nutrient agar; type: cell-based
Bacillus anthracis = assay: microbe, parasite or virus in culture; type: cell-based; conditions: 18 h
[13] = test system: Bacillus subtilis PCI 219; assay: MIC, serial dilution on nutrient agar; type: cell-based; conditions: PCI219, 37° C., 18 hours
[14] = test system: Escherichia coli K-12 1410 R81; assay: MIC, serial dilution on nutrient agar; type: cell-based; conditions: K121410R81, 18 h
[15] = test system: Pseudomonas aeruginosa ROS134/PU21; assay: microbe, parasite or virus in culture; type: cell-based; conditions: ROS134/PU21, 18 h
[16] = test system: Bacillus subtilis NRRL B-558; assay: MIC, serial dilution on nutrient agar; type: cell-based; conditions: NRRLB558, 37° C., 18 hours
[17] = test system: Escherichia coli K-12 R 388; assay: MIC, serial dilution on nutrient agar; type: cell-based; conditions: K12R388, 18 h
[18] = test system: Pseudomonas aeruginosa 99; assay: MIC, serial dilution on nutrient agar; type: cell-based
[19] = test system: Corynebacterium bovis 1810; assay: MIC, serial dilution on nutrient agar; type: cell-based; conditions: Corynebacterium bovis, 1810, 18 h
[20] = test system: Staphylococcus aureus Smith; assay: MIC, serial dilution on nutrient agar; type: cell-based; conditions: 37° C., 18 hours
Escherichia coli K-12 R5 = assay: microbe, parasite or virus in culture; type: cell-based; conditions: K12R5, 18 h
Proteus rettgeri GN466 = assay: MIC, serial dilution on nutrient agar; type: cell-based; conditions: Providencia rettgeri
Proteus rettgeri GN311 = assay: MIC, serial dilution on nutrient agar; type: cell-based; conditions: Providencia rettgeri
[21] = test system: Shigella dysenteriae JS11910; assay: MIC, serial dilution on nutrient agar; type: cell-based; conditions: JS11910, 18 h
[22] = test system: Escherichia coli K-12 LA 290 R55; assay: microbe, parasite or virus in culture; type: cell-based; conditions: K12LA290R55, 18 h
Escherichia coli W677 = assay: MIC, serial dilution on nutrient agar; type: cell-based
[23] = test system: Pseudomonas aeruginosa PST1; assay: MIC, serial dilution on nutrient agar; type: cell-based
Escherichia coli K-12 = assay: MIC, serial dilution on nutrient agar; type: cell-based
[24] = test system: Pseudomonas aeruginosa H9; assay: MIC, serial dilution on nutrient agar; type: cell-based; conditions: H9, 18 h
[25] = test system: Escherichia coli K-12 LA 290 R56; assay: microbe, parasite or virus in culture; type: cell-based; conditions: K12LA290R56, 18 h
[26] = test system: Klebsiella pneumoniae 22 #3038; assay: MIC, serial dilution on nutrient agar; type: cell-based; conditions: 18 h
[27] = test system: Mycrococcus flavus FDA 16; assay: MIC, serial dilution on nutrient agar; type: cell-based; conditions: 18 h
Escherichia coli JR255 = assay: microbe, parasite or virus in culture; type: cell-based; conditions: JR255, 18 h
intravenous LD50 in mice = conditions: mouse, in vivo, estimated
[28] = test system: Pseudomonas aeruginosa H11; assay: MIC, serial dilution on nutrient agar; type: cell-based
[29] = test system: Pseudomonas aeruginosa B-13; assay: MIC, serial dilution on nutrient agar; type: cell-based

Work on `C[C@@H]1C[C@H](N)[C@@H](O)[C@@H](O[C@@H]2[C@@H](O)[C@H](O[C@H]3O[C@H](CN)CC[C@H]3N)[C@@H](N)C[C@H]2NC(=O)[C@@H](O)CCN)O1` [AHB-4",6"-DDKB, 1-N-(L-4-amino-2-hydroxybutyryl)-4",6"-dideoxydibekacin] yielded an MIC ([1]; K12ML1410, 18 h) of 1.56 µg/mL (≈ 3 µM), an MIC (Providencia Pv 16; PV16, nutrient agar, 37° C., 18 hours, read-out: MIC) of 25 µg/mL (≈ 48 µM) and an MIC [2] of 0.78 µg/mL (≈ 1.5 µM). It also gave an MIC ([3]; APO1, 18 h) of 1.56 µg/mL (≈ 3 µM), an MIC ([4]; KPS102, nutrient agar, 37° C., 18 hours, read-out: MIC) of 12.5 µg/mL (≈ 24 µM) and an MIC [5] of 1.56 µg/mL (≈ 3 µM). For the same compound, the MIC ([6]; ATCC607, 18 h) was 0.39 µg/mL (≈ 0.749 µM), the MIC [7] was 3.13 µg/mL (≈ 6.01 µM) and the MIC ([8]; Staphylococcus epidermidis, 109, 18 h) was 1.56 µg/mL (≈ 3 µM). The MIC (Salmonella typhi F63) was 0.39 µg/mL (≈ 0.749 µM), the MIC (Escherichia coli NIHJ; 18 h) was 1.56 µg/mL (≈ 3 µM) and the MIC (Sarcina lutea PCI 1001) was 3.13 µg/mL (≈ 6.01 µM). The MIC [9] was 1.56 µg/mL (≈ 3 µM), the MIC [10] was 6.25 µg/mL (≈ 12 µM) and the MIC ([11]; NO.12, nutrient agar, 37° C., 18 hours, read-out: MIC) was 12.5 µg/mL (≈ 24 µM). The MIC ([12]; TI13, nutrient agar, 37° C., 18 hours, read-out: MIC) was 25 µg/mL (≈ 48 µM), the MIC (Bacillus anthracis) was under 0.2 µg/mL and the MIC [13] was under 0.2 µg/mL. For the same compound, the MIC [14] was 1.56 µg/mL (≈ 3 µM), the MIC [15] was over 100 µg/mL and the MIC [16] was under 0.2 µg/mL. The MIC [17] was 0.78 µg/mL (≈ 1.5 µM), the MIC ([18]; Pseudomonas aeruginosa, 99, nutrient agar, 37° C., 18 hours, read-out: MIC) was 12.5 µg/mL (≈ 24 µM) and the MIC [19] was 6.25 µg/mL (≈ 12 µM). The MIC [20] was under 0.2 µg/mL, the MIC (Escherichia coli K-12 R5) was 100 µg/mL (≈ 192 µM) and the MIC (Proteus rettgeri GN466; GN466, 18 h) was 3.13 µg/mL (≈ 6.01 µM). For the same compound, the MIC (Proteus rettgeri GN311; GN311, nutrient agar, 37° C., 18 hours, read-out: MIC) was 25 µg/mL (≈ 48 µM), the MIC [21] was 3.13 µg/mL (≈ 6.01 µM) and the MIC [22] was 1.56 µg/mL (≈ 3 µM). For the same compound, the MIC (Escherichia coli W677; W677, 18 h) was 1.56 µg/mL (≈ 3 µM), the MIC ([23]; PST1, nutrient agar, 37° C., 18 hours, read-out: MIC) was 25 µg/mL (≈ 48 µM) and the MIC (Escherichia coli K-12; K12, 18 h) was 1.56 µg/mL (≈ 3 µM). It also gave an MIC [24] of 6.25 µg/mL (≈ 12 µM), an MIC [25] of 1.56 µg/mL (≈ 3 µM) and an MIC [26] of 3.13 µg/mL (≈ 6.01 µM). For the same compound, the MIC [27] was 1.56 µg/mL (≈ 3 µM), the MIC (Escherichia coli JR255) was 1.56 µg/mL (≈ 3 µM) and the LD50 (intravenous LD50 in mice) was over 80 mg/kg. For the same compound, the MIC ([28]; H11, 18 h) was 50 µg/mL (≈ 96 µM) and the MIC ([29]; B13, nutrient agar, 37° C., 18 hours, read-out: MIC) was 12.5 µg/mL (≈ 24 µM).

`NC[C@@H]1CC[C@@H](N)[C@@H](O[C@H]2[C@H](O)[C@@H](O[C@H]3O[C@H](CO)[C@@H](O)[C@H](N)[C@H]3O)[C@H](N)C[C@@H]2N)O1` [DKB, 3',4'-dideoxykanamycin B, reference compound] showed an MIC ([1]; K12ML1410, nutrient agar, 37° C., 18 hours, read-out: MIC) of 1.56 µg/mL (≈ 3.45 µM), an MIC (Providencia Pv 16; PV16, 18 h) of over 100 µg/mL and an MIC [2] of 25 µg/mL (≈ 55.4 µM). The MIC ([3]; APO1, nutrient agar, 37° C., 18 hours, read-out: MIC) was 1.56 µg/mL (≈ 3.45 µM), the MIC ([4]; KPS102, 18 h) was 6.25 µg/mL (≈ 13.8 µM) and the MIC [5] was 3.13 µg/mL (≈ 6.93 µM). It also gave an MIC ([6]; ATCC607, nutrient agar, 37° C., 18 hours, read-out: MIC) of 1.56 µg/mL (≈ 3.45 µM), an MIC [7] of 100 µg/mL (≈ 221 µM) and an MIC ([8]; Staphylococcus epidermidis, 109, nutrient agar, 37° C., 18 hours, read-out: MIC) of 1.56 µg/mL (≈ 3.45 µM). The MIC (Salmonella typhi F63) was 0.78 µg/mL (≈ 1.73 µM), the MIC (Escherichia coli NIHJ; nutrient agar, 37° C., 18 hours, read-out: MIC) was 1.56 µg/mL (≈ 3.45 µM) and the MIC (Sarcina lutea PCI 1001) was 100 µg/mL (≈ 221 µM). It also gave an MIC [9] of 3.13 µg/mL (≈ 6.93 µM), an MIC [10] of 3.13 µg/mL (≈ 6.93 µM) and an MIC ([11]; NO.12, 18 h) of 6.25 µg/mL (≈ 13.8 µM). It also gave an MIC ([12]; TI13, 18 h) of 6.25 µg/mL (≈ 13.8 µM), an MIC (Bacillus anthracis) of under 0.2 µg/mL and an MIC [13] of under 0.2 µg/mL. For the same compound, the MIC [14] was 1.56 µg/mL (≈ 3.45 µM), the MIC [15] was over 100 µg/mL and the MIC [16] was under 0.2 µg/mL. For the same compound, the MIC [17] was 1.56 µg/mL (≈ 3.45 µM), the MIC ([18]; Pseudomonas aeruginosa, 99, 18 h) was 50 µg/mL (≈ 111 µM) and the MIC [19] was 50 µg/mL (≈ 111 µM). It also gave an MIC [20] of under 0.2 µg/mL, an MIC (Escherichia coli K-12 R5) of over 100 µg/mL and an MIC (Proteus rettgeri GN466; GN466, nutrient agar, 37° C., 18 hours, read-out: MIC) of 1.56 µg/mL (≈ 3.45 µM). The MIC (Proteus rettgeri GN311; GN311, 18 h) was 6.25 µg/mL (≈ 13.8 µM), the MIC [21] was 3.13 µg/mL (≈ 6.93 µM) and the MIC [22] was 100 µg/mL (≈ 221 µM). It also gave an MIC (Escherichia coli W677; W677, nutrient agar, 37° C., 18 hours, read-out: MIC) of 1.56 µg/mL (≈ 3.45 µM), an MIC ([23]; PST1, 18 h) of over 100 µg/mL and an MIC (Escherichia coli K-12; K12, nutrient agar, 37° C., 18 hours, read-out: MIC) of 1.56 µg/mL (≈ 3.45 µM). For the same compound, the MIC [24] was 6.25 µg/mL (≈ 13.8 µM), the MIC [25] was 25 µg/mL (≈ 55.4 µM) and the MIC [26] was 100 µg/mL (≈ 221 µM). The MIC [27] was 100 µg/mL (≈ 221 µM), the MIC (Escherichia coli JR255) was over 100 µg/mL and the MIC ([28]; H11, nutrient agar, 37° C., 18 hours, read-out: MIC) was 12.5 µg/mL (≈ 27.7 µM). The MIC ([29]; B13, 18 h) was 6.25 µg/mL (≈ 13.8 µM).
